Assay results reported in US20160058743A1, “METHODS FOR TREATING SENSORIMOTOR IMPAIRMENTS ASSOCIATED WITH CERTAIN TYPES OF STROKE USING AMINOPYRIDINES” (ACORDA THERAPEUTICS, INC., priority 2013, published 2016).
Several values for one entry are separate records, joined by “and”; a condition that tells them apart may be missing. Equal values may be shown once. Entries after “also recorded” stand apart in the source; their conditions may differ. Read-outs that look alike come from different tables or passages of the source.

What was measured:
Assay type in all cases: in vivo, Sprague Dawley rats
[1] = tested on: rats with middle cerebral artery occlusion (MCAO); test: Forelimb placing test after MCAO; settings: for Forelimb Placing Total Score: 0=normal, 12=maximally impaired
Excerpt: (§1) In particular, the MCAO model in Sprague Dawley rats that was utilized in the experiments presented below mimics the conditions in human ischemic stroke. In this model, focal cerebral infarcts were made by permanent occlusion of the proximal right middle cerebral artery (MCA) using a modification of the method of Tamura et al. (No To Shinkei 1986; 38:747-51). Briefly, the temporalis muscle was bisected and reflected through an incision made midway between the eye and the ear canal. The proximal MCA was exposed through a subtemporal craniectomy without removing the zygomatic arch and without transecting the facial nerve.
(§2) In this experiment, Sprague Dawley rats were anesthetized, subjected to a surgery resulting in middle cerebral artery occlusion (MCAO), treated with and without 4-aminopyridine and behavioral assessments were performed as described below. Treatment was initiated at 4 weeks after stroke.
(§3) Dosing and Treatment: Rats were treated in accordance with the dosing schedule shown in Tables 2A, 2B, 3 and FIG. 2, with each Phase being a two week period of time. A solution of 4-AP was used in this experiment. Dosing was started at 4 weeks after ischemic event. 4-aminopyridine was dissolved in water for injection (WFI, Cellgro) and sterile filtered. Final concentrations of 0.315 mg/mL or 1.0 mg/mL of 4-aminopyridine were delivered at 2 mL/kg by gastric gavage, resulting in final doses of 0.63 mg/kg and 2 mg/kg respectively. Vehicle control treatment was WFI delivered at 2 mL/kg by gastric gavage. This study was divided into three treatment phases (1-3) with each randomized cohort of animals receiving a different dose level during each of the treatment phases. Starting on day 30 after MCAO (Day 30, start of phase 1), the animals received gavage dosing of solutions (2 mL/kg) approximately 12 hours apart, for a total of five doses. The same schedule was repeated with different treatment on Day 44 and Day 58 for phase 2 and 3 of the study, respectively. Animals were not treated during the 10 days between phases (washout period).
(§4) Treatment groups: Dosing was started 4 weeks after MCAO surgery. During these 4 weeks, weekly behavioral assessments, as defined below, were performed. Two dose levels of 4-AP plus vehicle control were assessed, with treatment starting at 4 weeks after ischemic event. All dosing was via gastric gavage, volume not to exceed 2 mL/kg. Animals were given the first dose and behavioral assessments were performed starting 60 minutes after dosing. Animals then received the second dose that day at the appropriate time and b.i.d (preferably every 12 hours) thereafter for 2 more days (3 total days of dosing, 5 total doses). One hour after the 5th dose, animals were subjected to behavioral assessments as defined below. Following the final behavioral assessment, drug was withdrawn for 10 or 11 days, behavior was re-assessed, and then animals were re-challenged with a cross-over treatment (Phase 2 of Table 2B) as described in Tables 2A, 2B and 3, followed by the same behavioral testing and dosing regimen. This cross-over was repeated one more time as well (Phase 3 of Table 2B) (see FIG. 2).
(§5) Behavioral test details: Behavioral evaluations were done by evaluators blinded to treatment assignment. Blinded assessments of sensorimotor function were performed just prior to MCAO surgery, 24 hours after MCAO surgery and weekly thereafter until the first phase of dosing using limb placing and body swing behavioral tests. As described above, behavioral assessments were timed exactly with dosing times. Animals were tested one hour after the 1st and 5th doses of each phase (i.e., Days 30 and 32 of the first phase, Days 44 and 46 of the second phase; and Days 58 and 60 of the third phase); animals were also tested during the washout periods on Days 42 and 56. Animals were given the first dose, behavioral assessments were performed starting 60 minutes later, and blood was collected 90 minutes after dosing. […]

[2] = tested on: rats with middle cerebral artery occlusion (MCAO); test: Body swing test after MCAO; settings: for Body Swing Test (% right Swing): Group 3 mean, phase 2
Excerpt: as §1, §2, §3
as §4, with “Animals then received the second dose that day at the appropriate time and b.i.d (preferably every 12 hours) thereafter for 2 more days (3 total days of dosing, 5 total doses). One hour after the 5th dose, animals were subjected to behavioral assessments as defined below.” left out, “This cross-over was repeated one more time as well (Phase 3 of Table 2B) (see FIG. 2).” left out

[3] = tested on: rats with middle cerebral artery occlusion (MCAO); test: Hindlimb placing test after MCAO
Excerpt: as §1, §2, §3, §4, §5

[4] = 4-aminopyridine plasma levels 90 min after dosing (LC-MS/MS); settings: Sprague Dawley, rat, oral, read-out: Mean (SE) 4-aminopyridine Plasma Level
Protocol: Blood sampling: After the on-drug behavior assessments were completed (Days 30, 32, 44, 46, 58 and 60), approximately 300 microliter blood sample was taken exactly 90 min after dosing to assess 4-AP plasma levels at that time. Blood was collected from the saphenous vein of each animal. Blood was collected into K3 EDTA tubes and centrifuged at 10,000 rpm for 10 minutes at 4 degrees C. Plasma was obtained, frozen and stored at approximately −80 C. Samples were analyzed for 4-AP levels. 4-AP concentration was determined using a validated liquid chromatography with tandem mass spectrometric detection method in positive electrospray mode.
Treatment groups: Animals had MCAO surgery and were allowed to recover for 56 days. Animals were then randomized into 2 groups based on their baseline behavior. Par oral dosing b.i.d. was initiated in the evening of Day 56 after MCAO. Behavior testing during dosing periods was started 1 hour after dosing. Blood was collected via saphenous vein just prior to and during treatment phases just after behavioral testing (90 minutes post dosing). All dosing was via gastric gavage, volume not to exceed 2 mL/kg.
Blood sampling: 300 microliter blood sample was collected from the saphenous vein of each animal on Day 56 just prior to the first dose and then exactly 90 min after the 6 dose at each dose level. Blood was collected, centrifuged, stored and analyzed as described in Example 2, above.

[5] = Example 2, low (0.63 mg/kg) or high (2 mg/kg) dose b.i.d. p.o., started 4 weeks post MCAO, dose-responsive, reversible

## Nc1ccncc1 [4-AP, 4-aminopyridine]
[1]; [5]
  Effect on forelimb function (forelimb placing test): effective to improve forelimb function; also recorded: significant improvement
[1]; Group 2, D 30 post-MCAO, Low 4-AP 0.63 mg/kg b.i.d. p.o., 1 h after 1st dose, group Mean, N=15
  Forelimb Placing Total Score: 4.20
[1]; Group 2, D 58 post-MCAO, High 4-AP 2.0 mg/kg b.i.d. p.o., 1 h after 1st dose, group Mean, N=15
  Forelimb Placing Total Score: 1.90
[1]; Group 3, D 44 post-MCAO, High 4-AP 2.0 mg/kg b.i.d. p.o., 1 h after 1st dose, group Mean, N=15
  Forelimb Placing Total Score: 2.67
[1]; Group 3, D 44 post-MCAO, High 4-AP 2.0 mg/kg b.i.d. p.o., 1 h after 1st dose, individual rats
  Forelimb Placing Total Score: 4.00 (3×) and 1.00 and 2.50 and 3.00 (3×) and 4.50 (2×) and 0.00 (3×) and 5.00 and 1.50
[1]; Group 3, D 46 post-MCAO, High 4-AP 2.0 mg/kg b.i.d. p.o., 1 h after 5th dose, group Mean, N=15
  Forelimb Placing Total Score: 1.33
[1]; Group 3, D 46 post-MCAO, High 4-AP 2.0 mg/kg b.i.d. p.o., 1 h after 5th dose, individual rats
  Forelimb Placing Total Score: 3.00 (3×) and 0.00 (5×) and 2.00 and 1.50 (3×) and 1.00 (2×) and 2.50
[1]; Group 3, D 58 post-MCAO, Low 4-AP 0.63 mg/kg b.i.d. p.o., 1 h after 1st dose, group Mean, N=15
  Forelimb Placing Total Score: 2.00
[1]; Group 3, D 58 post-MCAO, Low 4-AP 0.63 mg/kg b.i.d. p.o., 1 h after 1st dose, individual rats
  Forelimb Placing Total Score: 3.00 (4×) and 0.50 and 2.00 and 3.50 and 1.50 (2×) and 2.50 (2×) and 4.00 and 0.00 (3×)
[1]; Group 3, D 60 post-MCAO, Low 4-AP 0.63 mg/kg b.i.d. p.o., 1 h after 5th dose, group Mean, N=15
  Forelimb Placing Total Score: 1.80
[1]; Group 3, D 60 post-MCAO, Low 4-AP 0.63 mg/kg b.i.d. p.o., 1 h after 5th dose, individual rats
  Forelimb Placing Total Score: 3.00 (4×) and 1.00 (2×) and 2.00 (2×) and 3.50 and 0.50 and 2.50 (2×) and 0.00 (3×)
[2]; Example 2, low (0.63 mg/kg) or high (2 mg/kg) dose b.i.d. p.o., started 4 weeks post MCAO, dose-dependent, reversible
  Effect on global body control (body swing test): effective to improve global body control; also recorded: significant improvement
[2]; Example 17 dose escalation, groups diverged before treatment initiation
  Body swing performance: no conclusions can be drawn
[2]; D 44 after MCAO
  Body Swing Test (% right Swing): 39.56%
[2]; D 46 after MCAO
  Body Swing Test (% right Swing): 40.44%
[3]; [5]
  Effect on hindlimb function (hindlimb placing test): effective to improve hindlimb function; also recorded: significant improvement
[3]; Group 1, D 32 post-MCAO, High 4-AP 2.0 mg/kg b.i.d. p.o., 1 h after 5th dose, group Mean, N=15, 0=normal, 6=maximally impaired
  Hindlimb Placing Total Score: 0.97
[3]; Group 2 mean, D 58 after MCAO, phase 3, high dose (sequence lvh, b238, inferred)
  Hindlimb Placing Total Score: 0.83
[3]; Group 2 mean, D 60 after MCAO, phase 3, high dose (sequence lvh, b238, inferred)
  Hindlimb Placing Total Score: 0.23
[3]; Group 3 mean, D 44 after MCAO, phase 2
  Hindlimb Placing Total Score: 0.90
[3]; Group 3 mean, D 46 after MCAO, phase 2
  Hindlimb Placing Total Score: 0.30
[4]; 0.5 mg/kg, Example 17 dose escalation, Dose Level 0.5 mg/kg b.i.d. p.o., 90 min after 6th dose
  concentration at 90 min: 68.3 ng/mL
[4]; 0.63 mg/kg, Group 1, Phase 2, Low 0.63 mg/kg b.i.d. p.o., 90 min after dosing
  concentration at 90 min: 64 ng/mL
[4]; 0.63 mg/kg, Group 2, Phase 1, Low 0.63 mg/kg b.i.d. p.o., 90 min after dosing
  concentration at 90 min: 78.1 ng/mL
[4]; 0.63 mg/kg, Group 3, Phase 3, Low 0.63 mg/kg b.i.d. p.o., 90 min after dosing
  concentration at 90 min: 61.8 ng/mL
[4]; 1 mg/kg, Example 17 dose escalation, Dose Level 1.0 mg/kg b.i.d. p.o., 90 min after 6th dose
  concentration at 90 min: 114 ng/mL
[4]; 2 mg/kg, Example 17 dose escalation, Dose Level 2.0 mg/kg b.i.d. p.o., 90 min after 6th dose
  concentration at 90 min: 185 ng/mL
[4]; 2 mg/kg, Group 1, Phase 1, High 2.0 mg/kg b.i.d. p.o., 90 min after dosing
  concentration at 90 min: 142 ng/mL
[4]; 2 mg/kg, Group 2, Phase 3, High 2.0 mg/kg b.i.d. p.o., 90 min after dosing
  concentration at 90 min: 144 ng/mL
[4]; 2 mg/kg, Group 3, Phase 2, High 2.0 mg/kg b.i.d. p.o., 90 min after dosing
  concentration at 90 min: 129 ng/mL
